From ChEMBL document CHEMBL4819123, “Pulchinenosides: Correlation of surface activity-cytotoxicity and hepatocyte apoptosis mechanism study” (Bioorg Med Chem Lett, 2021)

Experiments:
[1] = system: L02; assay: Induction of apoptosis in human L02 cells assessed as early apoptotic cells at 10 uM by annexin-V-FITC/PI staining based flow cytometry analysis (reference value: 3.81 %); format: cell-based; conditions: l02, 10 µM
[2] = system: L02; assay: Induction of cell cycle arrest in human L02 cells assessed as G0/G1 phase accumulation at 8 uM by PI staining based flow cytometry analysis (reference value: 53.77 %); conditions: l02, 8 µM
[3] = Hemolytic activity in rabbit erythrocytes; format: ADME, cell-based, Oryctolagus cuniculus, Erythrocyte; conditions: read-out: HD50 (the source's name)
[4] = system: L02; assay: Induction of cell cycle arrest in human L02 cells assessed as G0/G1 phase accumulation at 6 uM by PI staining based flow cytometry analysis (reference value: 53.77 %); conditions: l02, 6 µM
[5] = system: L02; assay: Induction of apoptosis in human L02 cells assessed as early apoptotic cells at 8 uM by annexin-V-FITC/PI staining based flow cytometry analysis (reference value: 3.81 %); format: cell-based; conditions: l02, 8 µM
[6] = system: L02; assay: Induction of cell cycle arrest in human L02 cells assessed as G0/G1 phase accumulation at 10 uM by PI staining based flow cytometry analysis (reference value: 53.77 %); conditions: l02, 10 µM
[7] = system: L02; assay: Cytotoxicity against human L02 cells assessed as increase in LDH leakage by LDH assay; format: cell-based
[8] = system: L02; assay: Induction of cell cycle arrest in human L02 cells assessed as G2/M phase accumulation at 6 uM by PI staining based flow cytometry analysis (reference value: 8 %); conditions: l02, 6 µM
[9] = system: L02; assay: Induction of apoptosis in human L02 cells assessed as late apoptotic cells at 6 uM by annexin-V-FITC/PI staining based flow cytometry analysis (reference value: 0.92 %); format: cell-based; conditions: l02, 6 µM
[10] = system: L02; assay: Induction of cell cycle arrest in human L02 cells assessed as S phase accumulation at 6 uM by PI staining based flow cytometry analysis (reference value: 38.23 %); conditions: l02, 6 µM
[11] = system: L02; assay: Induction of cell cycle arrest in human L02 cells assessed as S phase accumulation at 10 uM by PI staining based flow cytometry analysis (reference value: 38.23 %); conditions: l02, 10 µM
[12] = system: L02; assay: Induction of cell cycle arrest in human L02 cells assessed as G2/M phase accumulation at 10 uM by PI staining based flow cytometry analysis (reference value: 8 %); conditions: l02, 10 µM
[13] = system: L02; assay: Induction of cell cycle arrest in human L02 cells assessed as S phase accumulation at 8 uM by PI staining based flow cytometry analysis (reference value: 38.23 %); conditions: l02, 8 µM
[14] = system: L02; assay: Induction of apoptosis in human L02 cells assessed as late apoptotic cells at 8 uM by annexin-V-FITC/PI staining based flow cytometry analysis (reference value: 0.92 %); format: cell-based; conditions: l02, 8 µM
[15] = Oil-water partition coefficient, logP of compound; format: physicochemical
[16] = system: L02; assay: Induction of cell cycle arrest in human L02 cells assessed as G2/M phase accumulation at 8 uM by PI staining based flow cytometry analysis (reference value: 8 %); conditions: l02, 8 µM
[17] = system: L02; assay: Induction of apoptosis in human L02 cells assessed as early apoptotic cells at 6 uM by annexin-V-FITC/PI staining based flow cytometry analysis (reference value: 3.81 %); format: cell-based; conditions: l02, 6 µM
[18] = system: L02; assay: Induction of apoptosis in human L02 cells assessed as late apoptotic cells at 10 uM by annexin-V-FITC/PI staining based flow cytometry analysis (reference value: 0.92 %); format: cell-based; conditions: l02, 10 µM
[19] = system: L02; assay: Cytotoxicity against human L02 cells by MTT assay; format: cell-based
[20] = system: L02; assay: Induction of apoptosis in human L02 cells assessed as decrease in caspase 8 level at 8 to 12 ug/ml measured after 24 hrs by Western blot analysis; format: cell-based; conditions: l02, 24 h, dose 8-12 µg/ml
[21] = system: L02; assay: Induction of apoptosis in human L02 cells assessed as increase in cleaved caspase 8 level at 8 to 12 ug/ml measured after 24 hrs by Western blot analysis; format: cell-based; conditions: l02, 24 h, dose 8-12 µg/ml
[22] = system: L02; assay: Induction of apoptosis in human L02 cells assessed as decrease in caspase 9 level at 8 to 12 ug/ml measured after 24 hrs by Western blot analysis; format: cell-based; conditions: l02, 24 h, dose 8-12 µg/ml
[23] = system: L02; assay: Induction of apoptosis in human L02 cells assessed as decrease in ratio of Bcl-2/Bax at 8 to 12 ug/ml measured after 24 hrs by Western blot analysis; format: cell-based; conditions: l02, 24 h, dose 8-12 µg/ml
[24] = system: L02; assay: Induction of apoptosis in human L02 cells assessed as upregulation of FAS expression at 8 to 12 ug/ml measured after 24 hrs by Western blot analysis; format: cell-based; conditions: l02, 24 h, dose 8-12 µg/ml
[25] = system: L02; assay: Induction of cell cycle arrest in human L02 cells assessed as G0/G1 phase accumulation at 26 uM by PI staining based flow cytometry analysis (reference value: 53.77 %); conditions: l02, 26 µM
[26] = system: L02; assay: Induction of apoptosis in human L02 cells assessed as late apoptotic cells at 26 uM by annexin-V-FITC/PI staining based flow cytometry analysis (reference value: 0.92 %); format: cell-based; conditions: l02, 26 µM
[27] = system: L02; assay: Induction of cell cycle arrest in human L02 cells assessed as G0/G1 phase accumulation at 24 uM by PI staining based flow cytometry analysis (reference value: 53.77 %); conditions: l02, 24 µM
[28] = system: L02; assay: Induction of apoptosis in human L02 cells assessed as early apoptotic cells at 18 uM by annexin-V-FITC/PI staining based flow cytometry analysis (reference value: 3.81 %); format: cell-based; conditions: l02, 18 µM
[29] = system: L02; assay: Induction of cell cycle arrest in human L02 cells assessed as S phase accumulation at 26 uM by PI staining based flow cytometry analysis (reference value: 38.23 %); conditions: l02, 26 µM
[30] = system: L02; assay: Induction of apoptosis in human L02 cells assessed as late apoptotic cells at 24 uM by annexin-V-FITC/PI staining based flow cytometry analysis (reference value: 0.92 %); format: cell-based; conditions: l02, 24 µM
[31] = system: L02; assay: Induction of cell cycle arrest in human L02 cells assessed as G2/M phase accumulation at 26 uM by PI staining based flow cytometry analysis (reference value: 8 %); conditions: l02, 26 µM
[32] = system: L02; assay: Induction of apoptosis in human L02 cells assessed as early apoptotic cells at 26 uM by annexin-V-FITC/PI staining based flow cytometry analysis (reference value: 3.81 %); format: cell-based; conditions: l02, 26 µM
[33] = system: L02; assay: Induction of apoptosis in human L02 cells assessed as early apoptotic cells at 24 uM by annexin-V-FITC/PI staining based flow cytometry analysis (reference value: 3.81 %); format: cell-based; conditions: l02, 24 µM
[34] = system: L02; assay: Induction of cell cycle arrest in human L02 cells assessed as S phase accumulation at 24 uM by PI staining based flow cytometry analysis (reference value: 38.23 %); conditions: l02, 24 µM
[35] = system: L02; assay: Induction of cell cycle arrest in human L02 cells assessed as S phase accumulation at 18 uM by PI staining based flow cytometry analysis (reference value: 38.23 %); conditions: l02, 18 µM
[36] = system: L02; assay: Induction of cell cycle arrest in human L02 cells assessed as G0/G1 phase accumulation at 18 uM by PI staining based flow cytometry analysis (reference value: 53.77 %); conditions: l02, 18 µM
[37] = system: L02; assay: Induction of cell cycle arrest in human L02 cells assessed as G2/M phase accumulation at 24 uM by PI staining based flow cytometry analysis (reference value: 8 %); conditions: l02, 24 µM
[38] = system: L02; assay: Induction of cell cycle arrest in human L02 cells assessed as G2/M phase accumulation at 18 uM by PI staining based flow cytometry analysis (reference value: 8 %); conditions: l02, 18 µM
[39] = system: L02; assay: Induction of apoptosis in human L02 cells assessed as late apoptotic cells at 18 uM by annexin-V-FITC/PI staining based flow cytometry analysis (reference value: 0.92 %); format: cell-based; conditions: l02, 18 µM

Activity [2]	Activity [4]	Activity [6]	Activity [8]	Activity [10]	Activity [11]	Activity [12]	Activity [13]	logP [15]	Activity [16]	Activity [25]	Compound	Activity [1]	HC50 [3]	Activity [5]	Activity [7]	Activity [9]	Activity [14]	Activity [17]	Activity [18]	IC50 [19]	other results
56.86%	58.57%	50.68%	8%	33.43%	47.32%	2%	38.34%	0.318	4.8%		C[C@@H]1O[C@@H](O[C@H]2[C@H](O[C@H]3CC[C@]4(C)[C@H]5CC=C6[C@@H]7CC(C)(C)CC[C@]7(C(=O)O)CC[C@@]6(C)[C@]5(C)CC[C@H]4C3(C)C)OC[C@H](O)[C@@H]2O[C@@H]2O[C@H](CO)[C@@H](O)[C@H](O)[C@H]2O)[C@H](O)[C@H](O)[C@H]1O	2.79%	3.6 µM	13.4%	Toxic	2.91%	27.9%	6.87%	89.3%	7.49 µM	
60.25%	57.44%	67.43%	8%	34.56%	32.14%	0.45%	35.95%	-0.0114	3.8%		C[C@H]1O[C@@H](O[C@@H]2[C@@H](O)[C@@H](CO)O[C@H](O[C@@H]3[C@H](O)[C@@H](O)[C@H](O[C@H]4CC[C@]5(C)[C@H]6CC=C7[C@@H]8CC(C)(C)CC[C@]8(C(=O)O)CC[C@@]7(C)[C@]6(C)CC[C@H]5C4(C)C)O[C@@H]3CO)[C@@H]2O)[C@H](O[C@@H]2OC[C@@H](O)[C@@H](O)[C@@H]2O)[C@@H](O)[C@@H]1O	1.92%	2.49 µM	23.4%	Toxic	7.91%	54.1%	7.62%	92.2%	9.57 µM	Activity [20]: Toxic; Activity [21]: Toxic; Activity [22]: Toxic; Activity [23]: Toxic; Activity [24]: Toxic
								0.244		51.19%	C[C@@H]1O[C@@H](O[C@H]2[C@H](O[C@H]3CC[C@]4(C)[C@H]5CC=C6[C@@H]7CC(C)(C)CC[C@]7(C(=O)O)CC[C@@]6(C)[C@]5(C)CC[C@H]4C3(C)C)OC[C@H](O)[C@@H]2O)[C@H](O)[C@H](O)[C@H]1O		7.46 µM		Toxic					23.1 µM	Activity [26]: 8.41%; Activity [27]: 64%; Activity [28]: 8.4%; Activity [29]: 44.08%; Activity [30]: 6.93%; Activity [31]: 4.73%; Activity [32]: 54.9%; Activity [33]: 12.1%; Activity [34]: 36.28%; Activity [35]: 30.6%; Activity [36]: 69.09%; Activity [37]: 1.72%; Activity [38]: 0.31%; Activity [39]: 3.82%
67.33%	62.05%	39.69%	8%	29.95%	58.44%	1.88%	32.66%	0.0406	2%		C[C@@H]1O[C@@H](O[C@H]2[C@H](O[C@H]3CC[C@]4(C)[C@H]5CC=C6[C@@H]7CC(C)(C)CC[C@]7(C(=O)O)CC[C@@]6(C)[C@]5(C)CC[C@H]4C3(C)C)OC[C@H](O[C@@H]3O[C@H](CO)[C@@H](O)[C@H](O)[C@H]3O)[C@@H]2O)[C@H](O)[C@H](O)[C@H]1O [HEDERACOLCHISIDE A1]	3.51%	3.24 µM	17.6%	Toxic	3.11%	38.6%	4.59%	94.1%	7.13 µM	Activity [20]: Toxic; Activity [21]: Toxic; Activity [22]: Toxic; Activity [23]: Toxic; Activity [24]: Toxic
								0.115		61.72%	C[C@@H]1O[C@@H](O[C@H]2[C@H](O[C@H]3CC[C@@]4(C)[C@@H](CC[C@]5(C)[C@@H]4CC=C4[C@@H]6CC(C)(C)CC[C@]6(C(=O)O)CC[C@]45C)[C@]3(C)CO)OC[C@H](O[C@@H]3O[C@H](CO)[C@@H](O)[C@H](O)[C@H]3O)[C@@H]2O)[C@H](O)[C@H](O)[C@H]1O [HEDERACOLCHISIDE A]		6.83 µM		Toxic					21.1 µM	Activity [26]: 94.9%; Activity [27]: 7.96%; Activity [28]: 13.7%; Activity [29]: 30.28%; Activity [30]: 10.3%; Activity [31]: 8%; Activity [32]: 2.2%; Activity [33]: 15.9%; Activity [34]: 30.41%; Activity [35]: 40.23%; Activity [36]: 58.3%; Activity [37]: 61.63%; Activity [38]: 1.47%; Activity [39]: 4.61%

Compound	Activity [2]	Activity [4]	Activity [6]	Activity [8]	Activity [10]	Activity [11]	Activity [12]	Activity [13]	logP [15]	Activity [16]	Activity [25]	Activity [1]	HC50 [3]	Activity [5]	Activity [7]	Activity [9]	Activity [14]	Activity [17]	Activity [18]	IC50 [19]	other results
C[C@@H]1O[C@@H](O[C@H]2[C@H](O[C@H]3CC[C@@]4(C)[C@@H](CC[C@]5(C)[C@@H]4CC=C4[C@@H]6CC(C)(C)CC[C@]6(C(=O)O)CC[C@]45C)[C@]3(C)CO)OC[C@H](O)[C@@H]2O)[C@H](O)[C@H](O)[C@H]1O [ALPHA-HEDERIN]									0.0672		52.42%		9.04 µM		Toxic					21 µM	Activity [26]: 94.2%; Activity [27]: 59.52%; Activity [28]: 16.84%; Activity [29]: 40.88%; Activity [30]: 15.5%; Activity [31]: 6.72%; Activity [32]: 1.98%; Activity [33]: 17%; Activity [34]: 32.48%; Activity [35]: 31%; Activity [36]: 61%; Activity [37]: 8%; Activity [38]: 8%; Activity [39]: 8.18%
